For three molecules, residual activity results are on record in ChEMBL document CHEMBL5649166, “RIP3 induces apoptosis independent of pronecrotic kinase activity” (Mol Cell, 2014).

For assay [1], the target named is Leukocyte tyrosine kinase receptor (Homo sapiens) (UniProt P29376). The assay is described as follows: Inhibition of human TYK1/LTK using EAIYAAPFAKKK as substrate at 1 uM in presence of 32P-ATP by Hotspot assay relative to control; values are per cent of control.
Assay [2] deals with Casein kinase II subunit alpha (Homo sapiens) (UniProt P68400). The assay is described as follows: Inhibition of human CK2a using RRRDDDSDDD as substrate at 1 uM in presence of 32P-ATP by Hotspot assay relative to control; values are per cent of control.
Assay [3] has as its target Casein kinase I isoform gamma-1 (Homo sapiens) (UniProt Q9HCP0). The assay is described as follows: Inhibition of human CK1g1 using KRRRAL[pS]VASLPGL as substrate at 1 uM in presence of 32P-ATP by Hotspot assay relative to control; values are per cent of control.
Assay [4] concerns the target Receptor-interacting serine/threonine-protein kinase 2 (Homo sapiens) (UniProt O43353). Put plainly: Inhibition of human RIPK2 using myelin basic protein as substrate at 1 uM in presence of 32P-ATP by Hotspot assay relative to control; values are per cent of control.
Assay [5] concerns the target T1, Serine/threonine-protein kinase DCLK2 (Homo sapiens) (UniProt Q8N568).
T1 sequence (whole entry): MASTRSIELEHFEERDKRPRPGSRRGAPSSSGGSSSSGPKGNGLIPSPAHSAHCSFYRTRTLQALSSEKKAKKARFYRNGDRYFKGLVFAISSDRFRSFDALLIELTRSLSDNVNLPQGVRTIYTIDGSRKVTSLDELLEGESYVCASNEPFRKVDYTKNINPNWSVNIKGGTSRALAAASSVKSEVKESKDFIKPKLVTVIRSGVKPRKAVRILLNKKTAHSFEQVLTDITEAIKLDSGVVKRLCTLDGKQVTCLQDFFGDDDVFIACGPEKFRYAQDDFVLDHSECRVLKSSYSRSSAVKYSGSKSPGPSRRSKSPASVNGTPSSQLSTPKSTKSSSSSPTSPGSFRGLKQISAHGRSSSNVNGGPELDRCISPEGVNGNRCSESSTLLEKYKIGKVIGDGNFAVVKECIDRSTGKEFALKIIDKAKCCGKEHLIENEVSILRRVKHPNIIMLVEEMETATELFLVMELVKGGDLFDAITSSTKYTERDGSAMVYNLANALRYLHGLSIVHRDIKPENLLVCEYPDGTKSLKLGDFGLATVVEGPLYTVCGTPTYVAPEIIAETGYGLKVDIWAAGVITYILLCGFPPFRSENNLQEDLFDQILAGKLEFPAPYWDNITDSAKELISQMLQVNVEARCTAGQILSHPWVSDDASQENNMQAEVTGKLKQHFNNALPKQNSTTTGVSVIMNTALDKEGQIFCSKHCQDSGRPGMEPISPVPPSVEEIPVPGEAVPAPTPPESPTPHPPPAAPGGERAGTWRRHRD
Put plainly: Inhibition of human DCAMKL2 using KKLNRTLSFAEPG as substrate at 1 uM in presence of 32P-ATP by Hotspot assay relative to control; values are per cent of control.

The target of assay [6] is T2, Serine/threonine-protein kinase 17A (Homo sapiens) (UniProt Q9UEE5).
T2 sequence (whole entry): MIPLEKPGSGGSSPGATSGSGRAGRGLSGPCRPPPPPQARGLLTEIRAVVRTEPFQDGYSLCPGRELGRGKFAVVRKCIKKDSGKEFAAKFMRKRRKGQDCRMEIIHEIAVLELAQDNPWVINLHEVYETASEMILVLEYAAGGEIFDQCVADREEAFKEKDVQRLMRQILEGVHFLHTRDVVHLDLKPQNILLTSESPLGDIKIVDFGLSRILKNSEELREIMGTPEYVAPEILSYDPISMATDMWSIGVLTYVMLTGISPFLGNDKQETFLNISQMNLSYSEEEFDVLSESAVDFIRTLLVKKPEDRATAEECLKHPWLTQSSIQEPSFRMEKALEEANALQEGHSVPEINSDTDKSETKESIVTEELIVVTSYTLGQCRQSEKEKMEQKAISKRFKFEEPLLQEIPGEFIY
Put plainly: Inhibition of human DRAK1/STK17A using KKLNRTLSFAEPG as substrate at 1 uM in presence of 32P-ATP by Hotspot assay relative to control; values are per cent of control.

In assay [7] the target is Ribosomal protein S6 kinase alpha-2 (Homo sapiens) (UniProt Q15349). Put plainly: Inhibition of human RSK3 using KKLNRTLSVA as substrate at 1 uM in presence of 32P-ATP by Hotspot assay relative to control; values are per cent of control.
Assay [8] has as its target T3, Tyrosine-protein kinase ZAP-70 (Homo sapiens) (UniProt P43403).
T3 sequence (whole entry): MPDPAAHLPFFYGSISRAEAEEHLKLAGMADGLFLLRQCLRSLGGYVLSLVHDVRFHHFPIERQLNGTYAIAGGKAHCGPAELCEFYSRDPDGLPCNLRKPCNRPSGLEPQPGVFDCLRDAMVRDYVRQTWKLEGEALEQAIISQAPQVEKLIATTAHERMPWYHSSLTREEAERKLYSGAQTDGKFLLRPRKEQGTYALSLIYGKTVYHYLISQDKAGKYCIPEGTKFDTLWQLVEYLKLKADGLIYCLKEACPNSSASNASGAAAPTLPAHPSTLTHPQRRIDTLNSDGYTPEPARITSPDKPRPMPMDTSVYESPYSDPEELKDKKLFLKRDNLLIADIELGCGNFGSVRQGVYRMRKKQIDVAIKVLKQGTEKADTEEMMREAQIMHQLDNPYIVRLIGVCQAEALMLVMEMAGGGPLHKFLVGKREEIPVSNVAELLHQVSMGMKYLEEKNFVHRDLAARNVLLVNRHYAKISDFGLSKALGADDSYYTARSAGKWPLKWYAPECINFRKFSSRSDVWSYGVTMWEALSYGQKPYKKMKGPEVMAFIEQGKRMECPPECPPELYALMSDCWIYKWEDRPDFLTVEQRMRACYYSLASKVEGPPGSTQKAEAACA
Put plainly: Inhibition of human ZAP70 using poly[Glu:Tyr] (4:1) as substrate at 1 uM in presence of 32P-ATP by Hotspot assay relative to control; values are per cent of control.

Assay [9] has as its target Serine/threonine-protein kinase WNK3 (Homo sapiens) (UniProt Q9BYP7). Put plainly: Inhibition of human WNK3 using myelin basic protein as substrate at 1 uM in presence of 32P-ATP by Hotspot assay relative to control; values are per cent of control.
The target of assay [10] is Mitogen-activated protein kinase kinase kinase 8 (Homo sapiens) (UniProt P41279). The assay is described as follows: Inhibition of human COT1/MAP3K8 using MEK1 (K97R) as substrate at 1 uM in presence of 32P-ATP by Hotspot assay relative to control; values are per cent of control.

The structures appear in SMILES notation.

Chain of Serine/threonine-protein kinase WNK3 (Homo sapiens) (Q9BYP7 whole entry): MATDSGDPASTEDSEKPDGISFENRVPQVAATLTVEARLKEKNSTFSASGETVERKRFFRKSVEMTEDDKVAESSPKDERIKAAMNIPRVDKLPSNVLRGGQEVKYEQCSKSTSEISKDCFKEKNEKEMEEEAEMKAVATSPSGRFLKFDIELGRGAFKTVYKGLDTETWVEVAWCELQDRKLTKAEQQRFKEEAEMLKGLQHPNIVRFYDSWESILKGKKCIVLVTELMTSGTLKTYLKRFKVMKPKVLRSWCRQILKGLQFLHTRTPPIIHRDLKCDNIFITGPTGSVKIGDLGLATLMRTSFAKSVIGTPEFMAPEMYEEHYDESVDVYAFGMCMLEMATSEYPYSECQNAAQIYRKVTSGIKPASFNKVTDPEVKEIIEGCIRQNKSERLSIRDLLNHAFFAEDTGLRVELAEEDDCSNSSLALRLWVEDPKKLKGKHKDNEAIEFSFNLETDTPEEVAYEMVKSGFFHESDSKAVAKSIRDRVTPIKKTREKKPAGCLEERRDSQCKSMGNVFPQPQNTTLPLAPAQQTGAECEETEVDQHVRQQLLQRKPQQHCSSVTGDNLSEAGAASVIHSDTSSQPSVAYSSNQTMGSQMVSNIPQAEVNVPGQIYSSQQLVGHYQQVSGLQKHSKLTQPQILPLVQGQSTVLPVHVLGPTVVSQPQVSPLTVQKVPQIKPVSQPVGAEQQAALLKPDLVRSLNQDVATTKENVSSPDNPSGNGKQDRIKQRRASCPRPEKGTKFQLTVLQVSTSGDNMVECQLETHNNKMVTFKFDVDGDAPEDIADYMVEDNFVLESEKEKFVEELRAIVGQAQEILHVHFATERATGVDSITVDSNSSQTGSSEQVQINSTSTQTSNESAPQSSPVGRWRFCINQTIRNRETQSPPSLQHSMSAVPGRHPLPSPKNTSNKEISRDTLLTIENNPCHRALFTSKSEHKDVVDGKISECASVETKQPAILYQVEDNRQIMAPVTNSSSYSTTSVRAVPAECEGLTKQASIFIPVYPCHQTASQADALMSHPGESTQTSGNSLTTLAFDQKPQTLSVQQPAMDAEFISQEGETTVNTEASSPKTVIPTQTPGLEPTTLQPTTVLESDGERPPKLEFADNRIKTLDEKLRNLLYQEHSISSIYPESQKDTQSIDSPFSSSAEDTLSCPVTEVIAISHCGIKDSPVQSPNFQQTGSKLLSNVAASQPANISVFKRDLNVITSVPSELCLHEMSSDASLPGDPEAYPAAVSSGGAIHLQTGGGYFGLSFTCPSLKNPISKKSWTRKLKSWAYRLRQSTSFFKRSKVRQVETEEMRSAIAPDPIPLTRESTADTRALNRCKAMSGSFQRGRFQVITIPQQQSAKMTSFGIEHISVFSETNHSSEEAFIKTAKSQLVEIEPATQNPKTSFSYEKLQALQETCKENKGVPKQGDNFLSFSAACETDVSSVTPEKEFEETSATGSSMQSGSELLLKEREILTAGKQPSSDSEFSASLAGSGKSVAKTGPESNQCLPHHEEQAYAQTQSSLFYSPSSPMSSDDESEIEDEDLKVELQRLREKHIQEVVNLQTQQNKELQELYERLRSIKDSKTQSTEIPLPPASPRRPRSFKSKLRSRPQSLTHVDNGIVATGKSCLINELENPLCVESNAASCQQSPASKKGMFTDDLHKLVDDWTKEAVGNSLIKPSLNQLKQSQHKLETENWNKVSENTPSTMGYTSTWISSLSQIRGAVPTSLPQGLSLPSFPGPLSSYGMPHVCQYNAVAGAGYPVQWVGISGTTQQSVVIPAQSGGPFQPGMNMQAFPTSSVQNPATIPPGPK
Chain of Casein kinase I isoform gamma-1 (Homo sapiens) (Q9HCP0 whole entry, looked up, canonical isoform): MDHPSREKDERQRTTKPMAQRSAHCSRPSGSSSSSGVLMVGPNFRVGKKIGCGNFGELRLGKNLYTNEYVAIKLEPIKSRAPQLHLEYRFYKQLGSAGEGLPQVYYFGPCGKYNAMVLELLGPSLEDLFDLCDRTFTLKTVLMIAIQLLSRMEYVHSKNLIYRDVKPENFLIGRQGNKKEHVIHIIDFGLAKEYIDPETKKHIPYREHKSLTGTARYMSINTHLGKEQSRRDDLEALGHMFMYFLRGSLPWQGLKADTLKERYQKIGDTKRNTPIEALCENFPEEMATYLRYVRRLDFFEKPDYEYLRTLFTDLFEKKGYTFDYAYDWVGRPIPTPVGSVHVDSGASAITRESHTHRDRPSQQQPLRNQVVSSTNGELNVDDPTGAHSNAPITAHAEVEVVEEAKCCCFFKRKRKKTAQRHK
Chain of Receptor-interacting serine/threonine-protein kinase 2 (Homo sapiens) (O43353 whole entry): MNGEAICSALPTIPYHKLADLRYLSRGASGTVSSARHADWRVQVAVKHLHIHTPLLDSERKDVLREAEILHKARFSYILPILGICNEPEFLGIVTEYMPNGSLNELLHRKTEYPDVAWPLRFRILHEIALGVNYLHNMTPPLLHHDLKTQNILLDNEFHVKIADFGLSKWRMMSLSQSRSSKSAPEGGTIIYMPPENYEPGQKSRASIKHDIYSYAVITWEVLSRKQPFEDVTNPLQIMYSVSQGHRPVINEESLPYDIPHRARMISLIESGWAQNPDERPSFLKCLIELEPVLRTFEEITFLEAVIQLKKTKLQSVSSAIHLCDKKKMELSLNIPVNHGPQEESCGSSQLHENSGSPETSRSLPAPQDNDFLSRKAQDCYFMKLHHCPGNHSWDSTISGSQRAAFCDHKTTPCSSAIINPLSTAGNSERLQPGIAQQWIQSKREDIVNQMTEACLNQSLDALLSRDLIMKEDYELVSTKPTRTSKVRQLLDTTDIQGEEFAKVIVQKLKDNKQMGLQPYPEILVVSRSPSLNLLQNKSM
Chain of Leukocyte tyrosine kinase receptor (Homo sapiens) (P29376 whole entry): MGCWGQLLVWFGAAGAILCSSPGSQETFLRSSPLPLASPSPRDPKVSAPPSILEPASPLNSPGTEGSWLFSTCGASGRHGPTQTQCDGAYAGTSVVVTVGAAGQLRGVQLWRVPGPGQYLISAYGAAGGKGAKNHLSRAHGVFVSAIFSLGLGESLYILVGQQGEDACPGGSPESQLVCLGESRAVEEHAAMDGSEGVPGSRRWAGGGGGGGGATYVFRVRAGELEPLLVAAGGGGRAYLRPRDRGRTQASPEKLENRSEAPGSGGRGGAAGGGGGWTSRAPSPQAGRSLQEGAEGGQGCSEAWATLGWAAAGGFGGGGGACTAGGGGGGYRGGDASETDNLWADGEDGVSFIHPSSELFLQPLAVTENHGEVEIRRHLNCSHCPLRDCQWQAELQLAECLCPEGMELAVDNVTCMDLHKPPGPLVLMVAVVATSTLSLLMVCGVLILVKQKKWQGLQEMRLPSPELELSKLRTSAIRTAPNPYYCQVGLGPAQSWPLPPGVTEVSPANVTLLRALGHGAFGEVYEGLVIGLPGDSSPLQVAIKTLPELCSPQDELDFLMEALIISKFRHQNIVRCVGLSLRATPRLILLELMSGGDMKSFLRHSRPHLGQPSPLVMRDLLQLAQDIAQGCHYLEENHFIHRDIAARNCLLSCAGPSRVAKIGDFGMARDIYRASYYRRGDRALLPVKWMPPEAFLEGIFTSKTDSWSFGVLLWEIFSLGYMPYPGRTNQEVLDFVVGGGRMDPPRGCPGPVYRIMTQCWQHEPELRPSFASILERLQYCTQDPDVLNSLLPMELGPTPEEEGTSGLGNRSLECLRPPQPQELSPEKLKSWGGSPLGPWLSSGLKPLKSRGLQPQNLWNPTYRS
Chain of Ribosomal protein S6 kinase alpha-2 (Homo sapiens) (Q15349 whole entry): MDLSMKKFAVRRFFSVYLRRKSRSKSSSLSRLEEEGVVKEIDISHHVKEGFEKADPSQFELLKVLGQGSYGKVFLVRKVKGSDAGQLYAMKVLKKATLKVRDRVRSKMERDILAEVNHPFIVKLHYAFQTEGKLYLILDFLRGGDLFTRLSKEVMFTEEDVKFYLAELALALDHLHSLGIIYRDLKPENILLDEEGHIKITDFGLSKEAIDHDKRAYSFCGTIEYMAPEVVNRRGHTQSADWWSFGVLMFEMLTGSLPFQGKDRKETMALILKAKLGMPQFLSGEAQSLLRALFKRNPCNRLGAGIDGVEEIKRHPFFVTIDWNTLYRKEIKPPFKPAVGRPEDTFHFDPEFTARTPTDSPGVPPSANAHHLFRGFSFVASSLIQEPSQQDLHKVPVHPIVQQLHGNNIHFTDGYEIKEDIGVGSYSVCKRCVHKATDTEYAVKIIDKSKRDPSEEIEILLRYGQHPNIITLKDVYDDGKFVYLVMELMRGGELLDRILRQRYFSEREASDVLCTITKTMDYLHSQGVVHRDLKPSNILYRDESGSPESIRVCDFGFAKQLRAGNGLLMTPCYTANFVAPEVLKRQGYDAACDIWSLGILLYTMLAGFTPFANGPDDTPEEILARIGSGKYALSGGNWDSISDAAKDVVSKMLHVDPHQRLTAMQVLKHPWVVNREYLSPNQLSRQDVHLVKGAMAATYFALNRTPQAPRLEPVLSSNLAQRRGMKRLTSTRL
Chain of Casein kinase II subunit alpha (Homo sapiens) (P68400 whole entry, looked up, canonical isoform): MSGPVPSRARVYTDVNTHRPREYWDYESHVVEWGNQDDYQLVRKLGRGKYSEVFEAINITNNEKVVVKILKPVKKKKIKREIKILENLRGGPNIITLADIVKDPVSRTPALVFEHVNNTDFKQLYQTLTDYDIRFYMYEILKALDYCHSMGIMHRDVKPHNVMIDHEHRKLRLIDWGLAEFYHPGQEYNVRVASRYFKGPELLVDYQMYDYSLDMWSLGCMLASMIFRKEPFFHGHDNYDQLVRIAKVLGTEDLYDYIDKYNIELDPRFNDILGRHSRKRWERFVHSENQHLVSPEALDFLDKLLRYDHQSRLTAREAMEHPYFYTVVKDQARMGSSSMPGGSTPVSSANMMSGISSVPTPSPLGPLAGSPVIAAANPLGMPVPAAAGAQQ

On to `CNC(=O)c1ccc2c(c1)ncn2-c1ccc(CC(=O)OC(C)(C)C)cc1`, for which the residual activity in assay [1] was determined as 101%; in [2], 75.6%; in assay [3], 97.1%; in assay [4], 82.3%; in assay [5], 98.6%; in assay [6] it was 98.9%. Also, the residual activity in assay [7] turned out to be 97.1%; in assay [8], 102%; in assay [9], 99.9%; in [10], 108%.

For the molecule `Cc1cc(-c2cnc(N)c3c(-c4ccc5scnc5c4)csc23)n(C)n1`, the residual activity in [1] came out at 73.8%; in assay [2], 54.7%; in assay [3], 94.2%; in [4], 13.6%; in [5], 95.2%; in assay [6], 96.8%. The residual activity is 103% in assay [7], 89.8% in assay [8], 83% in assay [9] and 106% in assay [10].

Turning to `CC(C)S(=O)(=O)c1ccc2nccc(Nc3ccc4scnc4c3)c2c1`, the residual activity in assay [1] was found to be 98.3%; in [2], 92.4%; in assay [3] it was 103%; in [4], 20.7%; in assay [5], 99.4%; in assay [6], 99%. Further, the residual activity was 96% in assay [7], 102% in [8], 104% in [9] and 85.2% in assay [10].
